In PubChem BioAssay AID743028 (The Scripps Research Institute Molecular Screening Center, 2013):

Experiment: mouse plasma pharmacokinetic parameters, late-stage follow-up, in vivo study for V1a-R antagonist project, LC-MS (AID 743028)
Details: C57Bl6 mouse plasma PK, IV/PO; for Cmax: peak plasma concentration; for AUC last: plasma exposure; for Tmax: time to peak

half-life (IV dosing 1 mg/kg): 2.22 h | MRT inf (IV dosing 1 mg/kg, mean residence time): 1.65 h | Cmax (IV dosing 1 mg/kg): 19.5 µM | clearance (IV dosing 1 mg/kg, plasma clearance): 2.9 mL/min/kg | AUC last (IV dosing 1 mg/kg): 10.5 µM·h | Tmax (IV dosing 1 mg/kg): 0.08 h | Vss (IV dosing 1 mg/kg, volume of distribution): 0.26 L/kg | half-life (PO dosing 10 mg/kg): 2.88 h | bioavailability (PO dosing 10 mg/kg, oral bioavailability): 6.54% | Cmax (PO dosing 10 mg/kg): 3.08 µM | apparent oral clearance (CL/F) (PO dosing 10 mg/kg, plasma clearance): 35.1 mL/min/kg | AUC last (PO dosing 10 mg/kg): 10.5 µM·h | Tmax (PO dosing 10 mg/kg): 0.667 h
Compound: O=C(C1CCN(c2ccc(Cl)cn2)CC1)N(CC1CC1)c1ccc(Cl)cc1
